Reference: patent US11357778B2, “Antagonist of the fibroblast growth factor receptor 3 (FGFR3) for use in the treatment or the prevention of skeletal disorders linked with abnormal activation of FGFR3” (INSTITUT NATIONAL DE LA SANTE ET DE LE RECHERCHE MEDICALE …, priority 2011, dated 2022)

Key:
[1] = test system: WT femurs; experiment: Ex vivo culture of E16.5 embryonic femur explants, bone length, wild type; assay type: cell-based, mouse; conditions: A31 2 mM, 5 days of culture
Protocol: Six sets of ex vivo experiments were performed. Femur embryos at day E16.5 from WT (n=6) and Fgfr3^Y367C/+ (n=6) mice were used and incubated for 5 days in DMEM medium with antibiotics and 0.2% BSA (Sigma) supplemented with A31 or PD173074 (as control) at a concentration of 2 mM. Right femur was cultured in supplemented medium and compared with the left one cultured in control medium. Rib cage from E16.5 WT and Fgfr3^Y367C/+ mice embryos were isolated and stripped of all soft tissues. Primary chondrocytes were obtained from rib cages. The ribs were incubated in a pronase solution (Roche; 2 mg/ml) followed by a digestion in Collagenase A (Roche; 3 mg/ml) at 37° C. Isolated chondrocytes were plated out at a density of 2.105 cells in 6-well plates containing DMEM supplemented with 10% FCS and antibiotics, and were allowed to reach subconfluency. Cultures were supplemented with A31 or PD173074 (as control) at a concentration of 2 mM. […] To establish the effect of the inhibitors, the right femur was cultured in supplemented medium and compared with the left one cultured in control medium The bone length was measured at the beginning (before treatment) and at the end of time course. […] The genotype of WT, Fgfr3^Y367C/+ and Fgfr3^−/− mice were determined by PCR of tail DNA as previously described (Pannier et al., Biochim Biophys Acta, 1792: 140-147, 2009). […]

[2] = test system: Fgfr3^Y367C/+ mouse growth plates; experiment: Proliferation markers and cell cycle regulators in growth plates (immunohistochemistry, PCNA quantification); assay type: cell-based
Protocol: In situ hybridization using [S35]-UTP labeled antisense ribopropes for collagen X was carried out as previously described (Delezoide et al., Hum Mol Genet, 6, 1899-1906, 1997). Sections were counterstained with Hematoxylin. For immunohistochemistry, sections were stained with antibodies specific to FGFR3 (1:250 dilution; Sigma), anti PCNA (1:1000 dilution; Abcam), anti-KI67 (1:300; Abcam), anti-cyclin D1 (1:80 dilution; Santa Cruz) and anti-p57 (1:100 dilution; Santa Cruz) using the Dako Envision kit. Images were captured with an Olympus PD70-IX2-UCB microscope.
Three observers counted PCNA-positive and negative chondrocytes in proliferative […], prehypertrophic (PH) and hypertrophic (H) zones of the growth plate. A Student's t-test was used to compare treated (A31) and untreated femurs. Imagine software cellSens (Olympus) was used for counting cells. A p-value<0.05 is considered significant.
The inventors noted a higher expression of PCNA than KI67 in the mutant growth plate. Furthermore, the inventors investigated whether the presence of mutated Fgfr3 caused an impairment of expression of cell cycle regulators. In fact, activated Fgfr3 induced a significant overexpression of cyclin D1 in the proliferative and PH chondrocytes of Fgfr3^Y367C/+ mice. […] The inventors further analyzed the level of CDK inhibitors (CDKIs) negatively regulating the cell cycle, particularly p57, a member of the Cip/Kip family. Activated Fgfr3 induced a higher expression of p57 predominantly in late proliferative and PH chondrocytes. […] The inventors conclude that activated FGFR3 leads to over-expression of markers of proliferation (PCNA, KI67) and cell cycle regulators (cyclin D1 and p57) particularly in the prehypertrophic zone.

[3] = test system: Fgfr3^Y367C/+ femurs; experiment: Ex vivo culture of E16.5 embryonic femur explants, bone length; assay type: cell-based, mouse
Protocol: Six sets of ex vivo experiments were performed. Femur embryos at day E16.5 from WT (n=6) and Fgfr3^Y367C/+ (n=6) mice were used and incubated for 5 days in DMEM medium with antibiotics and 0.2% BSA (Sigma) supplemented with A31 or PD173074 (as control) at a concentration of 2 mM. Right femur was cultured in supplemented medium and compared with the left one cultured in control medium. Rib cage from E16.5 WT and Fgfr3^Y367C/+ mice embryos were isolated and stripped of all soft tissues. Primary chondrocytes were obtained from rib cages. The ribs were incubated in a pronase solution (Roche; 2 mg/ml) followed by a digestion in Collagenase A (Roche; 3 mg/ml) at 37° C. Isolated chondrocytes were plated out at a density of 2.105 cells in 6-well plates containing DMEM supplemented with 10% FCS and antibiotics, and were allowed to reach subconfluency. Cultures were supplemented with A31 or PD173074 (as control) at a concentration of 2 mM. Cells were treated with A31 (2 mM) PD173074 (as control) in serum-free DMEM supplemented with 0.2% BSA and harvested after 24 h. To establish the effect of the inhibitors, the right femur was cultured in supplemented medium and compared with the left one cultured in control medium The bone length was measured at the beginning (before treatment) and at the end of time course. Each experiment was repeated at least three times. The genotype of WT, Fgfr3^Y367C/+ and Fgfr3^−/− mice were determined by PCR of tail DNA as previously described (Pannier et al., Biochim Biophys Acta, 1792: 140-147, 2009). All experimental procedures and protocols were approved by the Animal Care and Use Committee.
Fgfr3^Y367C/+ mice display reduced length of long bones, broad femurs, a narrow trunk, short ribs and a slightly dome-shaped skull, closely resembling achondroplasia (FIGS. 3A and B). The inventors analyzed the effects of A31 on endochondral ossification in Fgfr3^Y367C/+ mice by using an ex vivo culture system for embryonic day 16.5 (E16.5) limb explants. […] After 5 days of culture, the increase in length of the treated mutant femurs was 2.6 times more than for that of WT.
Thus, embryonic femur explants were co-incubated with 150 nM of PD173074 for 5 days.
Embryonic femur explants were co-incubated 100 nM (10^−7M) or 1 μM (10^−6M) of BGJ-398 for 6 days.

[4] = A31-treated Fgfr3^Y367C/+ growth plates

COc1cc(OC)cc(-c2cc3cnc(NCc4cn(CC5CCCN(C)C5)nn4)nc3nc2NC(=O)NC(C)(C)C)c1 (stereo not drawn) [Compound A31]
longitudinal bone growth (gain in femur length) [1]: 1863±255 μm | PCNA positive cells, hypertrophic (H) zone [2, 4]: 18% | PCNA positive cells, prehypertrophic (PH) zone [2, 4]: 20% | p57 protein expression in growth plate ([2]; A31, PH zone, data not shown): reduced expression of p57 protein | KI67 expression in growth plates ([2]; A31, data not shown): decreased this expression | cyclin D1 expression in mutant femurs (immunohistochemistry) ([2]; A31, data not shown): returned cyclin D1 expression to control levels | limb growth in Fgfr3^Y367C/+ femurs (in words) ([3]; A31 2 mM, 5 days): fully restore limb growth | longitudinal bone growth (gain in femur length) ([3]; A31 2 mM, 5 days of culture, Fgfr3^Y367C/+ femurs): 1880±558 μm | increase in length of treated mutant femurs relative to WT ([3]; A31, after 5 days of culture): 2.6 times
